Entries after “also recorded” stand apart in the source; their conditions may differ.
Experiments:
p38 MAPK = test: Phosphorylation of p38 MAPK in HRECs after TNF-α (immunoblot); format: cell-based, human
Description: HRECs were seeded at 10^5 cells/well in a 6-well plate and after 24 hours of incubation at 37° C., cells were serum starved in 0.1% serum-EBM-2 for 8 hours. Cells were then treated with the indicated concentrations of SH-11052 (2) for one hour before the addition of 20 ng/ml of TNF-α. After 20 minutes, cells were lysed in NP-40 Lysis buffer containing 25 mM HEPES pH 7.4, 1% NP-40, 150 mM NaCl, 10% glycerol, 1 mM sodium orthovanadate, 10 mM sodium fluoride, 1 mM sodium pyrophosphate, 1 mM PMSF, 2.5 mg/ml aprotinin, 1 mM pepstatin, and 1 mM leupeptin. Equal amounts of proteins (80 μg), as measured by a Bradford assay, were run on 10% SDS-PAGE, transferred to PVDF membrane, blocked with 5% BSA in TBS-0.05% Tween-20 and immunoblotted with the indicated primary antibodies (1:1000 in 1% BSA in TBS-0.05% Tween-20) overnight at 4° C. After three washes in TBS-0.05% Tween-20, HRP-conjugated secondary antibodies (1:5000 in 5% BSA in TBS-0.05% Tween-20) were applied for one hour at room temperature. After three washes, the protein bands were detected and densitized using ECL Prime western blot detection reagent (GE Life Sciences, Piscataway, N.J., USA) and an XRS gel documentation system running Quantity One software (Bio-Rad). Target protein band intensity was normalized to housekeeping gene α-tubulin. […]

VCAM-1 = VCAM-1 protein expression in HRECs exposed to TNF-α (immunofluorescence); format: cell-based, human; details: 10 ng/ml TNF-α for 24 hours
Description: Cells (25,000 per coverslip) were seeded onto coverslips coated with Attachment Factor (Cell Systems, Kirkland, Wash., USA) and incubated at 37° C. and 5% CO2 for 24 hours in EGM-2. The cells were starved in 0.1% serum-EBM-2 for 8 hours followed by incubation in 0.1% serum-EBM-2 medium for an hour in the presence of different concentrations of SH-11052 (2). The cells were challenged with 10 ng/ml of TNF-α for 24 hours and fixed with 4% paraformaldehyde solution for 20 minutes at room temperature. The coverslips were quickly washed three times in TBS and blocked using 10% block solution (DAKO) prepared in 1×TBS-1% BSA buffer. The coverslips were incubated with the antibody against VCAM-1 (1:100 dilution), a cell adhesion molecule specifically expressed on endothelial cells, whose expression is induced by NF-κB upon TNF-α signaling, for 16 hours at 4° C. followed by three washes in TBS-0.1% BSA buffer. Dylight 555-conjugated secondary antibody (1:200) was used to probe for the VCAM-1 antibody. After three washes in TBS-0.1% BSA, the coverslips were mounted using Vectashield mounting medium containing DAPI nuclear stain. The cells were imaged using an LSM 700 confocal microscope. The image was analyzed for fluorescence signal intensity using MetaMorph software (Molecular Devices, Sunnyvale, Calif., USA).

HRECs [1] = test: EdU incorporation (DNA synthesis) in HRECs; format: cell-based, human; details: 24 hours treatment, 10 μM EdU pulse; listed as SH-11052 (2)
Description: In order to confirm the inhibition of cell proliferation, incorporation of 5-ethynyl-2′-deoxyuridine (EdU) into endothelial cells in the presence of SH-11052 (2) was further monitored. Particularly, cells (25,000 per coverslip) were seeded onto coverslips coated with Attachment Factor (Cell Systems, Kirkland, Wash., USA) placed in a 6-well plate and incubated with the indicated concentrations of SH-11052 (2) in EGM-2 for 24 hours at 37° C. and 5% CO2. The cells were then serum starved for 8 hours and the medium was replaced with EGM-2 containing 10 μM EdU. The plate was further incubated for another 8 hours before processing the cells for detection of labeled DNA (according to the manufacturer's instructions for the Click-iT EdU assay kit). Images were taken using an EVOS fluorescence microscope (AMG, Mill Creek, Wash., USA) and the number of DAPI stained and EdU stained cells were counted in six randomly chosen fields using ImageJ software.

HRECs [2] = test: Matrigel tube formation by HRECs; format: cell-based, human; details: for tube formation ability of HRECs: compared to DMSO control, concentration not given
Description: Matrigel assays were performed as described in Ponce (2001) In vitro matrigel angiogenesis assays, Methods Mol Med 46: 205-209, with slight modifications for the use of HRECs. Briefly, HRECs were starved overnight at 0.5% FBS in EBM-2 and plated on a 96-well plate at a density of 7,500 cells/well over 50 μL of Matrigel high concentration basement membrane. SH-11052 (2) was added at the indicated concentrations in EBM-2+1% FBS. Cells were observed every 2 hours by bright field microscopy at 40× magnification for tube formation. Closed units (polygons) were manually counted at 8 hours post plating and numbers normalized to the DMSO control. Assays were performed in triplicate.
For determining the effect of analog compound SH-11037 (6c) on tube formation, HRECs were plated in 100 μL of EGM-2 containing SH-11037 (6c) (0 nM, 50 nM and 200 nM) dissolved in DMSO in 96-well MatriGel-coated plates for one hour. Wells were photographed after 8 hours and number of polygons (enclosed shapes bordered by tubes) manually counted and expressed as a percentage of the DMSO-only control.

HRECs [3] = test: Migration of HRECs; format: cell-based, human
p21, CDK1, IL-6 and IL-8 = test: Gene expression effects on p21, CDK1, IL-6 and IL-8 (data not shown); format: cell-based; details: compared with cremastranone

Row | Compound | phosphorylation of p38 MAPK (p38 MAPK) | VCAM-1 protein expression (VCAM-1) | DNA synthesis (EdU incorporation) in HRECs (HRECs [1]) | tube formation ability of HRECs at 140 μM (HRECs [2]; 140 μM, 8 hours) | tube formation ability of HRECs (HRECs [2]; listed as SH-11052 (2)) | tube formation of HRECs at the GI50 value (HRECs [2]; compound at its GI50 value, 8 hours) | migration of HRECs (HRECs [3]) | gene expression effects on p21, CDK1, IL-6 and IL-8 (p21, CDK1, IL-6 and IL-8) | block of HREC tube formation (HRECs [2]; 500 nM, polygons vs DMSO-only control) [%] | tube formation ability of HRECs (HRECs [2])
1 | COc1ccc(CC2COc3cc(OC)c(O)c(O)c3C2=O)cc1O (single isomer, unassigned) [Compound 2] | inhibited phosphorylation | significant dose-dependent decrease | blocked EdU incorporation; also recorded: significantly inhibited in a dose dependent manner | completely abolished | inhibited tube formation; also recorded: significant reduction in their tube formation ability | significant reduction in tube formation | – | – | – | –
2 | COc1ccc(CC2COc3cc(OC)c(OC)c(OC)c3C2=O)cc1OC(=O)[C@H](Cc1ccccc1)NC(=O)OC(C)(C)C (stereo partly drawn) [Compound 6c, (2S)-2-methoxy-5-((5,6,7-trimethoxy-4-oxochroman-3-yl)methyl)phenyl 2-((tert-butoxycarbonyl)amino)-3-phenylpropanoate] | – | – | – | – | – | – | blocked migration | did not share cremastranone's gene expression effects | 88 | inhibited

— patent publication US10738024B2, “Compounds for treatment of angiogenesis-mediated diseases” (Indiana University Research and Technology Corporation, priority 2013, dated 2020)
